Assay results as given in patent publication US8906868B2, “Aminoglycoside derivatives” (Rempex Pharmaceuticals, Inc., priority 2010, dated 2014).
Values after ≈ are worked out from the molar mass of the structure shown. Like-named read-outs stand apart in the source and are kept apart here.

Key:
ACM1005 ATCC 19004 = assay: MIC, broth microdilution; format: cell-based, Acinetobacter baumannii; settings: Acinetobacter baumannii, ATCC19004; Table 4; read-out: Compound MIC on Bacterial Strains: Acinetobacter baumannii ACM1005 ATCC 19004
Procedure: (§1) To compare microbiological activity of the test compounds, minimum inhibitory concentrations (MIC.s) were determined. Antibiotic MICs were obtained using the broth microdilution method according to Clinical and Laboratory Standards Institute (CLSI) approved guidelines (Methods for dilution antimicrobial susceptibility tests for bacteria that grow aerobically; approved standard—7th ed. CLSI document M7-A7. Clinical and Laboratory Standards Institute, Wayne, Pa., incorporated herein by reference in its entirety). Antibiotics were dissolved as specified by CLSI (Performance standards for antimicrobial susceptibility testing; Seventeenth informational supplement. CLSI document M100-S17. Clinical and Laboratory Standards Institute, Wayne, Pa., incorporated herein by reference in its entirety), and were serially diluted 2-fold in cation adjusted Mueller Hinton Broth (CaMHB) at 2× concentration. Bacterial inoculums were prepared in CaMHB by suspension of a colony from an agar plate that was prepared the previous day to obtain a final concentration of 5×10^5CFU/ml. The plates were incubated for 18 hours at 35° C. […] MIC.s were determined by reading the turbidity of plate wells using a SpectraMax Plus384 plate reader (Molecular Devices, Sunnyvale, Calif., USA) at 600 nm and were confirmed by visual inspection.

ACM1006 acc(6′)-Ib = assay: microbe, parasite or virus in culture; format: cell-based, Acinetobacter baumannii; settings: Acinetobacter baumannii; Table 4; read-out: Compound MIC on Bacterial Strains: Acinetobacter baumannii ACM1006 acc(6′)-Ib
Procedure: as §1

[1] = system: Escherichia coli (ATCC 25922); assay: MIC, broth microdilution; settings: Escherichia coli
[2] = system: Pseudomonas aeruginosa (ATCC 27853); assay: MIC, broth microdilution; settings: Pseudomonas aeruginosa
[3] = system: Staphylococcus aureus (ATCC 29213); assay: MIC, broth microdilution; settings: Staphylococcus aureus
EC1002 aph(3′)-IV = assay: organism not typed; format: cell-based; settings: read-out: Compound MIC on Bacterial Strains: EC1002 aph(3′)-IV
Procedure: as §1
(§2) Activity of the test compounds was determined using QC strains and strains with known aminoglycoside resistance mechanisms (TABLE 3). This specific panel contained strains expressing enzymes that covalently modify N2″, N3 and N3′ positions.

PAM3073 aac(6′)-I = assay: microbe, parasite or virus in culture; format: cell-based, Pseudomonas aeruginosa; settings: Pseudomonas aeruginosa, Table 5; read-out: Compound MIC on Bacterial Strains: Pseudomonas aeruginosa PAM3073 aac(6′)-I
Procedure: as §1

PAM3072 aac(6′)-II = assay: microbe, parasite or virus in culture; format: cell-based, Pseudomonas aeruginosa; settings: Pseudomonas aeruginosa, Table 5; read-out: Compound MIC on Bacterial Strains: Pseudomonas aeruginosa PAM3072 aac(6′)-II
Procedure: as §1

[4] = system: Klebsiella pneumonia (ATCC 43816); assay: MIC, broth microdilution; settings: Klebsiella pneumoniae, ATCC43816, read-out: Compound MIC on Bacterial Strains: K. pneumonia ATCC 43816
ECM6003 rmtB = assay: microbe, parasite or virus in culture; format: cell-based, Escherichia coli; settings: Escherichia coli; Table 3; read-out: Compound MIC on Bacterial Strains: ECM6003 rmtB
Procedure: as §1, §2
The panel also contained a strain expressing ribosomal RNA methylase, RmtB.

[5] = system: Acinetobacter baumannii (ATCC 19606); assay: MIC, broth microdilution; settings: Acinetobacter baumannii, ATCC19606, read-out: Compound MIC on Bacterial Strains: A. baumannii ATCC 19606
EC1001 acc(6′)-Ib = assay: microbe, parasite or virus in culture; format: cell-based, Escherichia coli; settings: Escherichia coli; Table 4; read-out: Compound MIC on Bacterial Strains: Escherichia coli EC1001 acc(6′)-Ib
Procedure: as §1

[6] = system: ECM6007 aac(6′) + aph(2″); assay: microbe, parasite or virus in culture; format: cell-based, Escherichia coli; settings: Escherichia coli, 18 h; Table 4; read-out: Compound MIC on Bacterial Strains: Escherichia coli ECM6007 aac(6′) + aph(2″)
Procedure: as §1

ECM6010 ant(2″)-I = assay: microbe, parasite or virus in culture; format: cell-based, Escherichia coli; settings: Escherichia coli, read-out: Compound MIC on Bacterial Strains: ECM6010 ant(2″)-I
Procedure: as §1, §2

ECM6009 aac(3)-II = assay: microbe, parasite or virus in culture; format: cell-based, Escherichia coli; settings: Escherichia coli, read-out: Compound MIC on Bacterial Strains: ECM6009 aac(3)-II
Procedure: as §1, §2

ECM6011 aph(3′)-I = assay: microbe, parasite or virus in culture; format: cell-based, Escherichia coli; settings: Escherichia coli, read-out: Compound MIC on Bacterial Strains: ECM6011 aph(3′)-I
Procedure: as §1, §2

ECM6006 aph(3′)-III = assay: microbe, parasite or virus in culture; format: cell-based, Escherichia coli; settings: Escherichia coli, read-out: Compound MIC on Bacterial Strains: ECM6006 aph(3′)-III
Procedure: as §1, §2

[7] = ATCC25922, read-out: Compound MIC on Bacterial Strains: E. coli ATCC 25922
[8] = ATCC25922, read-out: Compound MIC on Bacterial Strains: ECM6000 ATCC 25922
[9] = ATCC25922, read-out: Compound MIC on Bacterial Strains: Escherichia coli ECM6000 ATCC 25922
[10] = ATCC27853, read-out: Compound MIC on Bacterial Strains: P. aeruginosa ATCC 27853
[11] = ATCC27853, read-out: Compound MIC on Bacterial Strains: Pseudomonas aeruginosa PAM3034 ATCC 27853
[12] = ATCC29213, read-out: Compound MIC on Bacterial Strains: S. aureus ATCC 29213, QC strain, Table 2
[13] = ATCC29213, read-out: Compound MIC on Bacterial Strains: Staphylococcus aureus SAM1000 ATCC 29213, Table 5

SMILES | MIC (ACM1005 ATCC 19004) [µg/mL] | MIC (ACM1006 acc(6′)-Ib) [µg/mL] | MIC [1, 7] [µg/mL] | MIC [1, 8] [µg/mL] | MIC [1, 9] [µg/mL] | MIC [2, 10] [µg/mL] | MIC [2, 11] [µg/mL] | MIC [3, 12] [µg/mL] | MIC [3, 13] [µg/mL] | MIC (EC1002 aph(3′)-IV) [µg/mL] | MIC (PAM3073 aac(6′)-I) [µg/mL] | MIC (PAM3072 aac(6′)-II) [µg/mL] | MIC [4] [µg/mL] | MIC (ECM6003 rmtB) [µg/mL] | MIC [5] [µg/mL] | MIC (EC1001 acc(6′)-Ib) [µg/mL] | MIC [6] [µg/mL] | MIC (ECM6010 ant(2″)-I) [µg/mL] | MIC (ECM6009 aac(3)-II) [µg/mL] | MIC (ECM6011 aph(3′)-I) [µg/mL] | other results
CN[C@@H]1C(O)[C@@H](OC2C(O)C(O[C@H]3O[C@H](CN)CCC3N)[C@@H](N)C[C@H]2NC(=N)CO)OCC1(C)O (stereo partly drawn) [Compound 22, N-((1R,2S,3S,4R,5S)-5-amino-4-((2R,3R,6S)-3-amino-6-(aminomethyl)tetrahydro-2H-pyran-2-vlxy)-2-((2R,3R,4R,5R)-3,5-dihydroxy-5-methyl-4-(methylamino)tetrahydro-2H-pyran-2-yloxy)-3-hydroxycyclohexyl)-2-hydroxy acetimidamide] | 1 to 8 (≈ 1.97 to 15.8 µM) | > 8 | 1 to 8 (≈ 1.97 to 15.8 µM) | 1 to 8 (≈ 1.97 to 15.8 µM) | 1 to 8 (≈ 1.97 to 15.8 µM) | < 1 | 1 to 8 (≈ 1.97 to 15.8 µM) | < 1 | < 1 | 1 to 8 (≈ 1.97 to 15.8 µM) | 1 to 8 (≈ 1.97 to 15.8 µM) | > 8 | < 1 | > 8 | > 8 | > 8 | 1 to 8 | > 8 | > 8 | 1 to 8 (≈ 1.97 to 15.8 µM) | MIC (ECM6006 aph(3′)-III): 1 to 8 µg/mL (≈ 1.97 to 15.8 µM)
CCN[C@@H]1C[C@H](N)[C@@H](O[C@H]2OC(CN)=CC[C@H]2N)[C@H](O)[C@H]1O[C@H]1OC[C@](C)(O)[C@H](NC)[C@H]1O [Netilmicin, reference compound] | 1 to 8 (≈ 2.1 to 16.8 µM) | > 8 | < 1 | < 1 | < 1 | 1 to 8 (≈ 2.1 to 16.8 µM) | 1 to 8 (≈ 2.1 to 16.8 µM) | < 1 | < 1 | < 1 | > 8 | > 8 | < 1 | > 8 | > 8 | > 8 | < 1 | < 1 | > 8 | < 1 | MIC (ECM6006 aph(3′)-III): < 1 µg/mL
CN[C@@H]1[C@@H](O)[C@@H](O[C@@H]2[C@@H](O)[C@H](O[C@H]3O[C@H](CNCC(O)CO)CC[C@H]3N)[C@@H](N)C[C@H]2NC(=O)[C@@H](O)CCN)OC[C@]1(C)O (stereo partly drawn) [Compound 8, (2S)-4-amino-N-((1R,2S,3S,4R,5S)-5-amino-4-((2R,3R,6S)-3-amino-6-((2,3-dihydroxypropylamino)methyl)tetrahydro-2H-pyran-2-yloxy)-2-((2R,3R,4R,5R)-3,5-dihydroxy-5-methyl-4-(methylamino)tetrahydro-2H-pyran-2-yloxy)-3-hydroxycyclohexyl)-2-hydroxybutanamide] | 1 to 8 (≈ 1.6 to 12.8 µM) | 1 to 8 (≈ 1.6 to 12.8 µM) | < 1 | < 1 | < 1 | 1 to 8 (≈ 1.6 to 12.8 µM) | 1 to 8 (≈ 1.6 to 12.8 µM) | < 1 | < 1 | < 1 | 1 to 8 (≈ 1.6 to 12.8 µM) | > 8 | < 1 | > 8 | > 8 | < 1 | < 1 | < 1 | < 1 | < 1 | MIC (ECM6006 aph(3′)-III): 1 to 8 µg/mL (≈ 1.6 to 12.8 µM)
CN[C@@H]1[C@@H](O)[C@@H](O[C@@H]2[C@@H](O)[C@H](O[C@H]3O[C@H](CNCCO)CC[C@H]3N)[C@@H](N)C[C@H]2NC(=O)C2(O)CNC2)OC[C@]1(C)O [Compound 43, N-((1R,2S,3S,4R,5S)-5-amino-4-((2R,3R,6S)-3-amino-6-((2-hydroxyethylamino)methyl)tetrahydro-2H-pyran-2-yloxy)-2-((2R,3R,4R,5R)-3,5-dihydroxy-5-methyl-4-(methylamino)tetrahydro-2H-pyran-2-yloxy)-3-hydroxycyclohexyl)-3-hydroxyazetidine-3-carboxamide] | 1 to 8 (≈ 1.69 to 13.5 µM) | < 1 | < 1 | < 1 | < 1 | 1 to 8 (≈ 1.69 to 13.5 µM) | 1 to 8 (≈ 1.69 to 13.5 µM) | < 1 | < 1 | 1 to 8 (≈ 1.69 to 13.5 µM) | 1 to 8 (≈ 1.69 to 13.5 µM) | > 8 | < 1 | > 8 | > 8 | 1 to 8 (≈ 1.69 to 13.5 µM) | < 1 | < 1 | 1 to 8 (≈ 1.69 to 13.5 µM) | < 1 | MIC (ECM6006 aph(3′)-III): < 1 µg/mL
